The text below walks through data of PMC3760277 (Journal of neurovirology, 2013).

For data set [1] the following is noted: rats; background statement, ref not given; cited from earlier work.
The next data set concerns HIV-1. Kind of data set: Plasma viral load during the 21-day study. The note with it: day 21, antiretroviral therapy (ATV/RTV + TDF/FTC) with concurrent CEP-1347 50 mg twice daily; baseline 3.80±3.70. Type of data set: in vivo, HIV-infected patients (human).
Data set [2] can be described thus: Steady-state plasma pharmacokinetics. Type of data set: in vivo, HIV-infected patients (human). The settings on record: for AUC(0-t): AUC0–24, Visit 2 (day 21), ATV/RTV 300/100 mg once daily with CEP-1347 50 mg twice daily, arithmetic mean (SD), n=19.
Data set [3] in a line: Safety and tolerability in the clinical study. Type of data set: in vivo, HIV-infected patients (human). The settings on record: CEP-1347 50 mg twice daily for 20 days with ATV/RTV and TDF/FTC.
For data set [4] the following is noted: monkeys; background statement, ref not given; cited from earlier work.
For data set [5] the following is noted: cited from earlier work.
Where [6] appears, read: CEP-1347 50 mg twice daily with ATV/r, day 21, mean (SD).

Like-named read-outs stand apart in the source and are kept apart here.

As for `CCSCc1ccc2c(c1)c1c3c(c4c5cc(CSCC)ccc5n5c4c1n2[C@H]1C[C@](O)(C(=O)OC)[C@]5(C)O1)CNC3=O` [CEP-1347], the “recovery of single oral doses in feces” value in data set [1] is “at least 95%”. The “average plasma viral load” value in the data set on HIV-1 is recorded as 2.41±2.03 log copies/mL. Moreover, in data set [2] (setting [6]), the Clss/F was 22.3 (15.3) L/h and the “R (accumulation ratio)” value was 5.1 (1.5). Further, in data set [2] (human, plasma, oral, 50 mg), the area under the curve (AUC) worked out at 2630 ng·h/mL, the highest concentration (Cmax) came to 427 ng/mL, the Tmax turned out to be 3 h and the half-life stood at 35.2 h. In data set [3], the tolerability entry was “well tolerated”. Also, the “recovery of single oral doses in feces” value in data set [4] is “at least 95%”.

On to `CC(C)c1nc(CN(C)C(=O)N[C@H](C(=O)N[C@@H](Cc2ccccc2)C[C@H](O)[C@H](Cc2ccccc2)NC(=O)OCc2cncs2)C(C)C)cs1` [RTV, Ritonavir], for which, in data set [2] (human, in vivo), the “AUC0–24 GMR (90 % CI)” value is 1.12 (0.90, 1.39); the “Cmax GMR (90 % CI)” value is 1.07 (0.85, 1.34); the “R GMR (90 % CI)” value was 1.05 (0.94, 1.16); the “T1/2 GMR (90 % CI)” value is 1.20 (0.92, 1.56). For the same molecule, the “Tmax GMR (90 % CI)” value in data set [2] (human, in vivo) is 0.89 (0.79, 1.15). In data set [2] (human, plasma, oral), this molecule had a Cmax of 1400 ng/mL, a half-life of 5.9 h and an AUC(0-t) of 13200 ng·h/mL. In data set [2] (human, plasma, oral, 50 mg), this molecule showed a half-life of 5.8 h.

Regarding `COC(=O)N[C@H](C(=O)N[C@@H](Cc1ccccc1)[C@@H](O)CN(Cc1ccc(-c2ccccn2)cc1)NC(=O)[C@@H](NC(=O)OC)C(C)(C)C)C(C)(C)C` [ATV, Atazanavir], the Clss/F in data set [2] (Visit 1 (day 1), ATV/RTV before CEP-1347, mean (SD)) is listed as 12.0 (10.3) L/h. Further, the Clss/F in data set [2] (Visit 1 (day 1), ATV/RTV before CEP-1347, mean (SD), listed as atazanavir) is reported as 12.0 L/h. In addition, the Clss/F in data set [2] (Visit 2 (day 21), ATV/RTV with CEP-1347 50 mg twice daily, mean (SD)) was 9.3 (10.7) L/h. In addition, in data set [2] (human, in vivo), the “AUC0–24 GMR (90 % CI)” value is reported as 1.30 (0.92–1.85), the “Clss/F GMR (90 % CI)” value is on record as 0.77 (0.54–1.09), the “Cmax GMR (90 % CI)” value is recorded as 1.14 (0.79–1.67) and the “R GMR (90 % CI)” value is given as 1.12 (1.05–1.20). Moreover, in data set [2] (human, in vivo), the “Tmax GMR (90 % CI)” value is reported as 0.86 (0.67–1.11), the “increase in T1/2” value is listed as 31% and the “increase in accumulation ratio (R)” value is given as 15%. In data set [2] (human, plasma, oral), the Cmax turned out to be 4000 ng/mL, the Tmax worked out at 2 h, the half-life was 12.7 h and the AUC(0-t) worked out at 49600 ng·h/mL. In data set [2] (human, plasma, oral, 50 mg), the Cmax came out at 4500 ng/mL, the Tmax was determined as 2 h and the half-life is 15.9 h. Besides, the clearance in data set [5] (population analysis, patients given ATV/r at 300/100 mg/day, ref Colombo et al. 2006) was 12.9 L/h. In addition, the clearance in data set [5] (previously reported in patients, ref Haberl et al. 2010) is reported as 8.5 L/h.
